Measurements: article PMC12467487, “An In Vitro Study of Protein S-Glutathionylation by Members of the CLIC Protein Family” (Biomolecules, 2025)

Tests used:
Experiment in all cases: tryptophan fluorescence quenching, glutathionylation of SQLWCLSN, AUC
Type in all cases: biochemical
rCLIC3 = target: T1, rCLIC3 (Homo sapiens, UniProt O95833); conditions: 5 mM GSSG, 100 uM peptide, McIlvaine's buffer pH 8, 0.1 uM enzyme; 1 h pre-incubation with 10 uM IAA-94
T1 construct: gene CLIC3; recombinant, soluble form; pET28a(+), E. coli BL21(DE3); His-tag removed by thrombin; SEC; endotoxin removed
T1 sequence (O95833 whole entry): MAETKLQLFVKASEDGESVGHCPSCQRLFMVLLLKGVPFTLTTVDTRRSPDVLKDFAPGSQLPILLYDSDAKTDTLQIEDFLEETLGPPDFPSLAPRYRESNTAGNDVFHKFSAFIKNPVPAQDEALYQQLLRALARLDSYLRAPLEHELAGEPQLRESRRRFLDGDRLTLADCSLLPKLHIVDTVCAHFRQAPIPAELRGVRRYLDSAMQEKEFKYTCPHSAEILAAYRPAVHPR

rCLIC4 = target: T2, rCLIC4 (Homo sapiens, UniProt Q9Y696); conditions: 5 mM GSSG, 100 uM peptide, McIlvaine's buffer pH 7, 0.1 uM enzyme; 1 h pre-incubation with 10 uM IAA-94
T2 construct: gene CLIC4; recombinant, soluble form; pET28a(+), ClearColi BL21(DE3); His-tag removed by thrombin; SEC
T2 sequence (Q9Y696 whole entry): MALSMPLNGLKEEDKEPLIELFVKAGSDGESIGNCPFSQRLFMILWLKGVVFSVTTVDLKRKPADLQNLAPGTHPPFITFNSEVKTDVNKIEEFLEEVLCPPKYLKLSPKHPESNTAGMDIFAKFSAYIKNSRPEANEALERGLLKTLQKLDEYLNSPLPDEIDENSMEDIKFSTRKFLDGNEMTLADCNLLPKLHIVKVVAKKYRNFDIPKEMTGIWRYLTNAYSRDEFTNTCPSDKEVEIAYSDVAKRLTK

rCLIC1 = target: T3, rCLIC1 (Homo sapiens, UniProt O00299); conditions: 5 mM GSSG, 100 uM peptide, McIlvaine's buffer pH 7, 0.1 uM enzyme; 1 h pre-incubation with 10 uM IAA-94
T3 construct: gene CLIC1; recombinant, soluble form; pET28a(+), ClearColi BL21(DE3); His-tag removed by thrombin; SEC

CC1(C2CCCC2)Cc2cc(OCC(=O)O)c(Cl)c(Cl)c2C1=O (stereo not drawn) [IAA-94]
fold reduction of glutathionylation activity at 10 uM (rCLIC3): 0.2 fold | fold decrease in glutathionylation activity at 10 uM (rCLIC4): 0.4 fold | fold decrease in glutathionylation activity at 10 uM (rCLIC1): 0.7 fold
